Legend:
ErbB2 or EGFR = target: T1, ErbB2 or EGFR; assay: ErbB enzyme substrate phosphorylation assay (HTRF), Method A; type: biochemical; conditions: Table 1, enzyme Method A: substrate mix added first, reaction started with enzyme mix; class over ErbB2 or EGFR
T1 construct: enzymes purified from a baculovirus expression system
Protocol: Compounds of the present invention were tested for EGFR, ErbB-2, and ErbB-4 protein tyrosine kinase inhibitory activity in substrate phosphorylation assays using enzymes purified from a baculovirus expression system. Reagent production was conducted essentially as described in Brignola, P. S., et al, (2002) J. Biol. Chem. 277(2): 1576-1585.
The method measures the ability of the isolated enzyme to catalyse the transfer of the gamma-phosphate from ATP onto the tyrosine residue of a biotinylated synthetic peptide referenced “Peptide C” in Brignola, P. S., et al, (2002) J. Biol. Chem. 277(2):1576-1585. The extent of tyrosine phosphorylation was measured using an anti-phosphotyrosine antibody, and quantified by homogenous time-resolved fluorescence (HTRF).
Reactions were performed in black 384-well polystyrene flat-bottom plates in a final volume of 20 μl. Assays were performed by adding 10 μl of each of the following solutions, substrate Mix and enzyme mix: The Substrate mix contained 100 mM 3-[N-morpholino]propanesulfonic acid (MOPS) (pH 7.5), 2 mM MnCl2, 20 μM ATP, 0.01% Tween-20, 0.1 mg/mL (BSA), 0.8 uM peptide substrate, and 1 mM dithiothreitol. The enzyme mix contained 100 mM MOPS (pH7.5); 0.01% Tween-20; 0.1 mg/mL BSA, and either 0.8 nM EGFR, 10 nM ErbB2, or 1 nM ErbB4
During the course of these studies, two separate methods have been used to measure the potency of compounds. In Method A, the substrate mix was added to the compound plates first, then the reaction was started by adding the enzyme mix. In Method B, the enzyme mix was added to the compound plates and the plates were incubated at 20° C. for 1 hour. The reactions were then started by adding the substrate mix.
After initiating the reaction with either method describe above, the reactions were allowed to proceed for 90 minutes at 20° C. The reactions were then terminated by the addition of 20 μl 100 mM EDTA to each well. 40 μl/well of HTRF detection mix were added to the assay plates. The final concentrations of the detection reagents were: 100 mM HEPES (pH7.5), 0.1 mg/mL BSA, 15 nM streptavidin-labeled allophycocyanin (PerkinElmer), and 1 nM europium-labeled anti-phosphotyrosine antibody (PerkinElmer). Assay plates were left unsealed and were counted in a Wallac Multilabel Counter 1420 (PerkinElmer). […]
The data for dose responses were plotted as % Inhibition calculated with the data reduction formula 100*(1−(U1−C2)/(C1−C2)) versus concentration of compound where U is the unknown value, C1 is the average control value obtained for 4.76% DMSO, and C2 is the average control value obtained for 0.035 M EDTA. […] The results for each compound were recorded as pIC50s, calculated as follows: pIC50=−Log 10(K)

Colo205 tumor cell lines = assay: Methylene blue growth inhibition assay (cellular Method A); type: cell-based; conditions: Homo sapiens, COLO 205, 72 h, Table 3, Method A methylene blue, 3 days
Protocol: (§1) Human breast (BT474) and head and neck (HN5) were cultured in low glucose DMEM (Life Technologies 12320-032) containing 10% fetal bovine serum (FBS). Human colon tumor cells (Colo205) were cultured in DMEM (Invitrogen, 10564) containing 10% FBS. The SV40 transformed human mammary epithelial cell line to HB4a was transfected with either human H-ras cDNA (HB4a r4.2) or the human c-ErbB2 cDNA (HB4a c5.2). The HB4a clones were cultured in RPMI containing 10% FBS, insulin ([…]), hydrocortisone ([…]), supplemented with the selection agent hygromycin B ([…]). All lines were grown in a humidified incubator at 37° C. in 95% air, 5% CO2. Cells were harvested using trypsin/EDTA, counted using a haemocytometer, and plated in 100 microliters of the appropriate media, at the following densities, in a 96-well tissue culture plate (Falcon 3075): BT474 10,000 cells/well, HN5 3,000 cells/well. The next day, compounds were diluted in DMEM containing […] gentamicin, at twice the final required concentration, from 10 mM stock solutions in DMSO. 100 microliters/well of these dilutions were added to the 100 microliters of media currently on the cell plates. Medium containing 0.6% DMSO was added to control wells. Compounds diluted in DMEM were added to all cell lines. The final concentration of DMSO in all wells was 0.3%. Cells were returned to the incubator (37° C., […]) for 3 days. Medium was then removed by aspiration. Cell biomass was estimated by staining cells with 90 microliters per well methylene blue (Sigma M9140, 0.5% in 1:1 ethanol:water), and incubation at rt for at least 30 minutes. Stain was removed, and the plates rinsed by immersion in deionized water and air-dried. To release stain from the cells 100 microliters of solubilization solution was added (1% N-lauroyl sarcosine, Sodium salt, Sigma L5125, in PBS), and plates were shaken gently for about 30 minutes. Optical density at 620 nm was measured on a microplate reader. Percent inhibition of cell growth was calculated relative to vehicle treated control wells. Concentration of compound that inhibits 50% of control cell growth (IC50) was interpolated using nonlinear regression (Levenberg-Marquardt) and the equation, y=Vmax*(1−(x/(K+x)))+Y2, where “K” was equal to the IC50. Method B: Celltiter Glo® Growth Inhibition Assays

[1] = system: BT474 and HN5 tumor cell lines; assay: as above; type: cell-based; conditions: Homo sapiens, BT-474 and HN5, 72 h; Table 2, Method A methylene blue, 3 days; class over BT474 and HN5;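 note: class counts the more potent of the two cell lines (BT474 or HN5)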
Protocol: as §1

IC50 (Colo205 tumor cell lines) [nM] | IC50 [1] [nM] | SMILES | Activity (Method) (ErbB2 or EGFR)
> 1000 | > 1000 | O=C(Cc1ccccc1)Nc1cccc(-c2nn3ccccc3c2-c2ccnc(Nc3ccccc3)n2)c1 [Example 3, 2-Phenyl-N-(3-{3-[2-(phenylamino)-4-pyrimidinyl]pyrazolo[1,5-a]pyridin-2-yl}phenyl)acetamide] | ++ (A) (at least one pIC50 measurement greater than 6 against either ErbB2 or EGFR but no measurement greater than pIC50 of 7)
– | – | O=C(Cc1cccs1)Nc1cccc(-c2nn3ccccc3c2-c2ccnc(Nc3ccccc3)n2)c1 [Example 4, N-(3-{3-[2-(Phenylamino)-4-pyrimidinyl]pyrazolo[1,5-a]pyridin-2-yl}phenyl)-2-(2-thienyl)acetamide] | ++ (A) (at least one pIC50 measurement greater than 6 against either ErbB2 or EGFR but no measurement greater than pIC50 of 7)
– | – | O=C(Cc1cccc(Cl)c1)Nc1cccc(-c2nn3ccccc3c2-c2ccnc(Nc3ccccc3)n2)c1 [Example 5, 2-(3-Chlorophenyl)-N-(3-{3-[2-(phenylamino)-4-pyrimidinyl]pyrazolo-[1,5-a]pyridin-2-yl}phenyl)acetamide] | + (A) (no pIC50 measurement greater than 6 against either ErbB2 or EGFR)
– | – | O=C(Cc1cc(F)ccc1F)Nc1cccc(-c2nn3ccccc3c2-c2ccnc(Nc3ccccc3)n2)c1 [Example 6, 2-(2,5-Difluorophenyl)-N-(3-{3-[2-(phenylamino)-4-pyrimidinyl]pyrazolo[1,5-a]pyridin-2-yl}phenyl)acetamide] | ++ (A) (at least one pIC50 measurement greater than 6 against either ErbB2 or EGFR but no measurement greater than pIC50 of 7)

From patent US7807673B2, “2-pyrimidinyl pyrazolopyridine ErbB kinase inhibitors” (GlaxoSmithKline LLC, priority 2005, dated 2010)
